Data on 18 molecules can be found in US20230303599A1, “PRODRUGS OF PHOSPHONAMIDE NUCLEOTIDE ANALOGUES AND THEIR PHARMACEUTICAL USE” (priority 2020, published 2023).

≈ marks a conversion by molar mass, not a printed value. A value given as a limit tells only on which side of the number the result lay.

A short description of data set [1]: Kinetic solubility analysis. It is filed as physicochemical. The note with it: 1× PBS, 24.2 °C, aqueous buffer, kinetic from dmso stock; pH 7.4 PBS, 1% DMSO, 24-hour incubation at ambient temperature. Here is the method: Example 108: Kinetic Solubility Analysis
Buffer Preparation: 0.1 N HCl: Hydrochloric acid, 0.1 N standardized solution (MP Biomedicals part number 199569). 1×PBS, pH 7.4: Phosphate Buffered Saline (PBS) solution 10× (Fisher Bioreagent part number BP399-500) 50 mL was added to approximately 450 mL HPLC grade H2O. The volume of the solution was then adjusted to 500 mL for a total dilution factor of 1:10 and a final PBS concentration of 1×.
The final DMSO concentration was 1.0% (v/v) and maximum theoretical compound concentration is 100 μM (for compound stock concentration of 10 mM). The filter plate was sealed. Following 24-hour incubation at ambient temperature (24.2-27.5° C.), the samples were vacuum filtered and the filtrates were collected in a 96 well polypropylene plate for analysis. The collection plate was sealed for analysis. Filtrates were injected into the Antek 8060 chemiluminescent nitrogen detector for quantification. The results are reported in μM.
The filtrates were quantified with respect to this calibration curve. Each calculated solubility value was corrected for background nitrogen present in the DMSO and in the medium used to prepare the sample. All reported values for compounds containing adjacent nitrogen atoms in a ring structure were increased by approximately 25%.

A short description of data set [2]: Cytotoxicity assay in MT-4 cells. The class given is cell-based. The note with it: human, uninfected MT-4 cells, average of at least two independent experiments, read-out: MT4 CC50. Here is the method:
Compounds were tested in a high-throughput 384-well assay format for their ability to inhibit the replication of HIV-1 (IIIB) in MT-4 cells. Compounds were serially diluted (1:3) in DMSO on 384-well polypropylene plates and further diluted 200-fold into complete RPMI media (10% FBS, 1% P/S) using the Biotek Micro Flow and Labcyte ECHO acoustic dispenser. Each plate contained up to 8 test compounds, with negative (no drug) and positive (5 μM AZT) controls. MT-4 cells were pre-treated with 10 μL of either RPMI (mock-infected) or a fresh 1:250 dilution of HIV-1 IIIB concentrated virus stock. Infected and uninfected MT-4 cells were further diluted in complete RPMI media and added to each plate using a Micro Flow dispenser. After 5 days incubation in a humidified and temperature-controlled incubator (37° C.), Cell Titer Glo (Promega) was added to the assay plates and chemiluminescence read using an Envision plate-reader. EC50 values were defined as the compound concentration that causes a 50% decrease in luminescence signal and were calculated using a sigmoidal dose-response model to generate curve fits and are shown in Table 1.
Example 105: Cytotoxicity Assay in MT-4 Cells
Assays were performed as described in Example 104 except uninfected MT-4 cells were added to each well containing test compound. In addition, 10 μM puromycin was added to the last column of each assay plate to assess a base level of cytotoxicity.

Broadly, the solubility (kinetic) is solubility judged after dilution from a stock solution rather than from solid. For orientation: CC50 means the concentration that lowers cell viability or growth by half. The molecule `C[C@H](Cn1cnc2c(N)ncnc21)OCP(=O)(N[C@@](C)(Cc1ccccc1)C(=O)OCC1CCCCC1)N[C@@](C)(Cc1ccccc1)C(=O)OCC1CCCCC1` [Example 15, Bis(cyclohexylmethyl) 2,2′-((((((R)-1-(6-amino-9H-purin-9-yl)propan-2-yl)oxy)methyl)phosphoryl)bis(azanediyl))(2S,2'S)-bis(2-methyl-3-phenylpropanoate)] had a solubility (kinetic) at 24 h in data set [1] of 2 µg/mL (≈ 2.49 µM). Besides, in data set [2], the half-maximal cytotoxic concentration (CC50) at 5 days was 4.36 µM.

`CCCCCCOC(=O)C(C)(C)NP(=O)(CO[C@H](C)Cn1cnc2c(N)ncnc21)N[C@]1(C(=O)OCCCCCC)C[C@H]1CC` (stereo partly drawn) [Example 16, Hexyl (1R,2R)-1-((((((R)-1-(6-amino-9H-purin-9-yl)propan-2-yl)oxy)methyl)((1-(hexyloxy)-2-methyl-1-oxopropan-2-yl)amino)phosphoryl)amino)-2-ethylcyclopropane-1-carboxylate] registered a solubility (kinetic) at 24 h in data set [1] of 12 µg/mL (≈ 18.4 µM). Also, the CC50 at 5 days in data set [2] was found to be 6.41 µM. In the case of `CCCCCCOC(=O)[C@@]1(NP(=O)(CO[C@H](C)Cn2cnc3c(N)ncnc32)N[C@]2(C(=O)OCCCCCC)C[C@H]2CC)C[C@H]1CC` [Example 17, Dihexyl 1,1′-((((((R)-1-(6-amino-9H-purin-9-yl)propan-2-yl)oxy)methyl)phosphoryl)bis(azanediyl))(1R,1′R,2R,2′R)-bis(2-ethylcyclopropane-1-carboxylate)], the half-maximal cytotoxic concentration (CC50) at 5 days in data set [2] was determined as 8.85 µM.

Turning to `CCCCCCOC(=O)C(C)(C)NP(=O)(CO[C@H](C)Cn1cnc2c(N)ncnc21)NC1(C(=O)OCCCCCC)CCC1` (stereo partly drawn) [Example 18, Hexyl 1-((((((R)-1-(6-amino-9H-purin-9-yl)propan-2-yl)oxy)methyl)((1-(hexyloxy)-2-methyl-1-oxopropan-2-yl)amino)phosphoryl)amino)cyclobutane-1-carboxylate], the solubility (kinetic) at 24 h in data set [1] was 22 µg/mL (≈ 34.5 µM). Also, the CC50 at 5 days in data set [2] amounted to 6.57 µM. The like results for `CCCCCCOC(=O)C1(NP(=O)(CO[C@H](C)Cn2cnc3c(N)ncnc32)NC2(C(=O)OCCCCCC)CCC2)CCC1` [Example 19, Dihexyl 1,1′-(((((1-(6-amino-9H-purin-9-yl)propan-2-yl)oxy)methyl)phosphoryl)bis(azanediyl))(R)-bis(cyclobutane-1-carboxylate)] were, in that order, 18 µg/mL (≈ 27.7 µM) and 17.3 µM.

Consider `C[C@H](Cn1cnc2c(N)ncnc21)OCP(=O)(NC(C)(C)C(=O)OC1CCCC1)NC(C)(C)C(=O)OC1CCCC1` [Example 34, Dicyclopentyl 2,2′-(((((1-(6-amino-9H-purin-9-yl)propan-2-yl)oxy)methyl)phosphoryl)bis(azanediyl))(R)-bis(2-methylpropanoate)], for which the kinetic solubility at 24 h in data set [1] came out at 59 µg/mL (≈ 99.4 µM). In data set [2], the half-maximal cytotoxic concentration (CC50) at 5 days is 3.67 µM. For `CC(C)COC(=O)C(C)(C)NP(=O)(CO[C@H](C)Cn1cnc2c(N)ncnc21)NC(C)(C)C(=O)OCC(C)C` [Example 35, Diisobutyl 2,2′-(((((1-(6-amino-9H-purin-9-yl)propan-2-yl)oxy)methyl)phosphoryl)bis(azanediyl))(R)-bis(2-methylpropanoate)], in that order: 54 µg/mL (≈ 94.8 µM) and 4.35 µM. For `CCCOC(=O)C(C)(C)NP(=O)(CO[C@H](C)Cn1cnc2c(N)ncnc21)NC(C)(C)C(=O)OCCC` [Example 36, Dipropyl 2,2′-(((((1-(6-amino-9H-purin-9-yl)propan-2-yl)oxy)methyl)phosphoryl)bis(azanediyl))(R)-bis(2-methylpropanoate)], in that order: 60 µg/mL (≈ 111 µM) and 8.96 µM. As for `C[C@H](Cn1cnc2c(N)ncnc21)OCP(=O)(NC(C)(C)C(=O)OC1CCC2(CCC2)CC1)NC(C)(C)C(=O)OC1CCC2(CCC2)CC1` (stereo partly drawn) [Example 63, Di(spiro[3.5]nonan-7-yl) 2,2′-(((((1-(6-amino-9H-purin-9-yl)propan-2-yl)oxy)methyl)phosphoryl)bis(azanediyl))(R)-bis(2-methylpropanoate)], the CC50 at 5 days in data set [2] was 2.22 µM. In data set [1], `CCCCCCOC(=O)C(NP(=O)(CO[C@H](C)Cn1cnc2c(N)ncnc21)NC(C(=O)OCCCCCC)(C1CC1)C1CC1)(C1CC1)C1CC1` [Example 64, Dihexyl 2,2′-(((((1-(6-amino-9H-purin-9-yl)propan-2-yl)oxy)methyl)phosphoryl)bis(azanediyl))(R)-bis(2,2-dicyclopropylacetate)] had a solubility (kinetic) at 24 h of under 1 µg/mL. For the same molecule, the CC50 at 5 days in data set [2] is 7.34 µM. The molecule `CCCCCCOC(=O)C(C)(C)NP(=O)(CO[C@H](C)Cn1cnc2c(N)ncnc21)NC(C)(C)C(=O)OCC1(F)CC1` (stereo partly drawn) [Example 78, (1-Fluorocyclopropyl)methyl 2-((((((R)-1-(6-amino-9H-purin-9-yl)propan-2-yl)oxy)methyl)((1-(hexyloxy)-2-methyl-1-oxopropan-2-yl)amino)phosphoryl)amino)-2-methylpropanoate] yielded a solubility (kinetic) at 24 h in data set [1] of 60 µg/mL (≈ 97.8 µM). In data set [1], `CCCCCCOC(=O)C(C)(C)NP(=O)(CO[C@H](C)Cn1cnc2c(N)ncnc21)NC(C)(C)C(=O)OCC(C)(C)OC` (stereo partly drawn) [Example 79, Hexyl 2-((((((R)-1-(6-amino-9H-purin-9-yl)propan-2-yl)oxy)methyl)((1-(2-methoxy-2-methylpropoxy)-2-methyl-1-oxopropan-2-yl)amino)phosphoryl)amino)-2-methylpropanoate] had a kinetic solubility at 24 h of 68 µg/mL (≈ 108 µM).

As to `CCCCCCOC(=O)C(C)(C)NP(=O)(CO[C@H](C)Cn1cnc2c(N)ncnc21)NC(C)(C)C(=O)OCC12CCC(CC1)C2` (stereo partly drawn) [Example 80, Bicyclo[2.2.1]heptan-1-ylmethyl 2-((((((R)-1-(6-amino-9H-purin-9-yl)propan-2-yl)oxy)methyl)((1-(hexyloxy)-2-methyl-1-oxopropan-2-yl)amino)phosphoryl)amino)-2-methylpropanoate], the solubility (kinetic) at 24 h in data set [1] came out at 56 µg/mL (≈ 86.2 µM). The same measure, in the same setting: the result for `CCCCCCOC(=O)C(C)(C)NP(=O)(CO[C@H](C)Cn1cnc2c(N)ncnc21)NC(C)(C)C(=O)OC(C)C1CC1` (stereo partly drawn) [Example 81, 1-Cyclopropylethyl 2-((((((R)-1-(6-amino-9H-purin-9-yl)propan-2-yl)oxy)methyl)((1-(hexyloxy)-2-methyl-1-oxopropan-2-yl)amino)phosphoryl)amino)-2-methylpropanoate] reads 61 µg/mL (≈ 100 µM); that for `CCCCCCOC(=O)C(C)(C)NP(=O)(CO[C@H](C)Cn1cnc2c(NCc3oc(=O)oc3C)ncnc21)NC(C)(C)C(=O)OCCCCCC` [Example 82, Dihexyl 2,2′-(((((1-(6-(((5-methyl-2-oxo-1,3-dioxol-4-yl)methyl)amino)-9H-purin-9-yl)propan-2-yl)oxy)methyl)phosphoryl)bis(azanediyl))(R)-bis(2-methylpropanoate)], 10 µg/mL (≈ 13.6 µM); that for `C[C@H](Cn1cnc2c(N)ncnc21)OCP(=O)(NC(C)(C)C(=O)O[C@H]1C[C@@H](c2ccccc2)C1)NC(C)(C)C(=O)O[C@H]1C[C@@H](c2ccccc2)C1` [Example 85, Bis((1s,3S)-3-phenylcyclobutyl) 2,2′-((((((R)-1-(6-amino-9H-purin-9-yl)propan-2-yl)oxy)methyl)phosphoryl)bis(azanediyl))bis(2-methylpropanoate)], 6 µg/mL (≈ 8.36 µM). `C[C@H](Cn1cnc2c(N)ncnc21)OCP(=O)(NC(C)(C)C(=O)O[C@H]1CC[C@H](c2ccccc2)CC1)NC(C)(C)C(=O)O[C@H]1CC[C@H](c2ccccc2)CC1` [Example 93, Bis(trans-4-phenylcyclohexyl) 2,2′-((((((R)-1-(6-amino-9H-purin-9-yl)propan-2-yl)oxy)methyl)phosphoryl)bis(azanediyl))bis(2-methylpropanoate)]: the solubility (kinetic) at 24 h in data set [1] was found to be 1 µg/mL (≈ 1.29 µM). In addition, in data set [2], the half-maximal cytotoxic concentration (CC50) at 5 days was 5.47 µM. Take `CCCCCCOC(=O)C(C)(C)NP(=O)(CO[C@H](C)Cn1cnc2c(NC(=O)OCC(=O)OCc3oc(=O)oc3C)ncnc21)NC(C)(C)C(=O)OCCCCCC` [Example 95, Dihexyl 2,2′-(((((1-(6-(((2-((5-methyl-2-oxo-1,3-dioxol-4-yl)methoxy)-2-oxoethoxy)carbonyl)amino)-9H-purin-9-yl)propan-2-yl)oxy)methyl)phosphoryl)bis(azanediyl))(R)-bis(2-methylpropanoate)]: the solubility (kinetic) at 24 h in data set [1] came to 60 µg/mL (≈ 71.4 µM). Besides, the CC50 at 5 days in data set [2] came out at 14.8 µM.
